Data as given in patent publication US12624068B2, “Exon skipping by peptide nucleic acid derivatives” (OliPass Corporation, priority 2016, dated 2026).
[C(1O2)] = modified PNA monomer acting as cytosine, C(pOq) type, 1O2; [A(5)] = modified PNA monomer acting as adenine, A(p) type, p=5; [G(6)] = modified PNA monomer acting as guanine, G(p) type, p=6; {Fethoc} = N-terminal Fethoc cap; {NH2} = C-terminal amide

How the values were obtained:
[1] = system: mouse dystrophin pre-mRNA; assay: Dystrophin nested PCR (Method A) in muscles of mdx mice; format: in vivo
Protocol: “DMD-ASO 1” and “DMD-ASO 4” were evaluated for their ability to induce exon skipping in muscles of mdx mice by subcutaneous administration as follows. [ASO Treatment & Sampling Muscle Tissues] The injection solutions were prepared by diluting an aqueous mother stock solution of “DMD-ASO 1” or “DMD-ASO 4” in PBS to 500 nM. Male mdx mice were subcutaneously administered with vehicle only (negative control), “DMD-ASO 1” or “DMD-ASO 4” at 2 mL/Kg, 2× per day (BID) for 3 days. One day after the final dose, the animals were anesthetized with zoletil/rompun, and sacrificed to sample muscle tissues including the heart, diaphragm, gatrocnemius, quadriceps, and triceps. [RNA Extraction] Muscle samples were homogenized by grinding in a tube kept on ice, and subjected to total RNA extraction with 1 mL trizol reagent (Invitrogen) per ca 100 mg muscle tissue. [cDNA Synthesis by One-Step RT-PCR] 500 ng of RNA template was used in a 25 μL reverse transcription reaction using Super Script® One-Step RT-PCR kit with Platinum® Taq polymerase (Cat. Number 10928-042, Invitrogen) and a set of exon-specific primers [DMD-exon 21_forward: (5'→3') […] NO: 103); and DMD-exon 25_reverse: (5'→3') […] [Nested PCR Amplification] 1 μL of cDNA was further amplified in a 20 μL nested PCR (Cat. Number K2612, Bioneer) reaction against a set of primers [DMD-exon 22n_forward: (5'→3') […] NO: 105); and DMD-exon 25n_reverse: (5'→3') […] [Identification of Exon Skipping Product] The skipping of exon 23 was detected only in the animals treated with “DMD-ASO 1” and “DMD-ASO 4”. […] Mdx mice subcutaneously received “DMD-ASO 1” at 0 (negative control) or 10 pmole/Kg, 2× per day for 5 days. (2 animals per group) One day after the final dose, the animals were sacrificed for tissue sampling. The triceps samples were evaluated for the skipping of exon 23 according to the nested RT-PCR method described in “DMD Example 1”.

mdx mice = assay: Grip test in mdx mice chronically administered; format: in vivo, mouse; settings: mdx mice, 10, 50 or 200 pmole/Kg subcutaneous chronic, Week 0 to 30
Protocol: “DMD-ASO 1” was evaluated by chronically administering to mdx mice for its ability to improve muscle function by grip test, to induce exon skipping, to upregulate the expression of the full-length dystrophin (i.e., dystrophin protein with the C-terminus encoded) by IHC, and to improve the muscular integrity by histopathology with H&E staining as described below.
[Grouping & ASO Treatment] Male mdx mice (7 weeks old) were randomly assigned to 4 groups of 0 (mdx negative control), 10, 50, and 200 pmole/Kg “DMD-ASO 1” based on individual grip strength scores by grip test. (N=12 per group) A satellite group of 12 male C57BL/6 mice (7 weeks old) was included in this study as the wild type negative control group for the full-length dystrophin expression level.
The 50 and 200 pmole/Kg group subcutaneously received “DMD-ASO 1” as dissolved in PBS, 2× per week until the final sacrifice in Week 43. In the meantime, the 10 pmole/Kg group subcutaneously received “DMD-ASO 1” initially 2× per week during Week 0 to 8, and 3× per week afterwards to increase the ASO exposure.
[Muscle Function by Grip Test] Muscle function was evaluated on a weekly basis by grip strength on a grip strength-meter (Cat. Number 47,200, Ugo Basile) according to the literature. [J. Appl. […] The grip strength scores by group were evaluated for statistical significance by student's t-test against the mdx negative control group.

serum myoglobin = assay: Serum myoglobin level in mdx mice; format: in vivo; settings: DMD-ASO 1 50 pmole/Kg, DMD-ASO 2 or DMD-ASO 6 10 pmole/Kg, 2× per week, Week 66
Protocol: [Terminal Sacrifice] In Week 48, the animals were subjected to terminal sacrifice for blood sampling. The blood samples were analyzed for the serum level of CK (Creatine Kinase Activity Assay Kit, Cat. Number ab155901, Abcam) and myoglobin (Myoglobin ELISA Kit, Cat. Number ab210965, Abcam) to assess the degree of muscle degradation according to the manufacturer's instructions. Muscle tissues were analyzed by western blot for the full-length dystrophin.
[Terminal Sacrifice] All the survived animals were sacrificed for blood sampling in Week 66 post the grouping. The blood samples were subjected to ELISA assays for serum creatine kinase (CK) and serum myoglobin as described in “DMD Example 6”.

SCN9A mRNA = assay: SCN9A nested qPCR by SYBR Green in PC3 cells; format: cell-based, human; settings: 24 hours
Protocol: “SCN-ASO 7” was evaluated for its ability to inhibit the expression of the human SCN9A mRNA in PC3 cells by qPCR against a set of exon-specific primers as follows. [Cell Culture & ASO Treatment] PC3 cells grown in 60 mm culture dish containing 5 mL culture medium were incubated with “SCN-ASO 7” for 24 hours at 0 (negative control), 10, 100 or 1,000 zM. (2 culture dishes per concentration) [RNA Extraction] […] [cDNA Synthesis by One Step RT-PCR] […] NO: 78); and SCN-exon 9_reverse: (5'→3') […] NO: 79)]. […] [Nested qPCR Amplification] […] NO: 80); SCN-exon 4_reverse: (5'→3') […] NO: 81); SCN-exon 5_forward: (5'→3') […] NO: 82); SCN-exon 5_reverse: (5'→3') […] NO: 83); SCN-exon 6_forward: (5'→3') […] NO: 84); SCN-exon 6_reverse: (5'→3') […] NO: 85)]. The PCR reactions were probed with SYBR Green (Takara, Japan). […] “SCN-ASO 3” was evaluated for its ability to inhibit the expression of the full-length SCN9A mRNA in PC3 cells according to the protocol described in “SCN9A Example 2”, unless noted otherwise. “SCN-ASO 8” was evaluated for its ability to inhibit the expression of the full-length SCN9A mRNA in PC3 cells according to the protocol described in “SCN9A Example 2”, unless noted otherwise.

Row | Substance | skipping of dystrophin exon 23 (nested PCR Method A) ([1]; subcutaneous 10 pmole/Kg, 2× per day for 5 days, triceps) | skipping of dystrophin exon 23 (nested PCR Method A) ([1]; subcutaneous 1,000 pmole/Kg BID for 3 days, quadriceps and gastrocnemius) | increase of grip strength compared to the mdx negative control group (mdx mice) | serum myoglobin level smaller than the mdx negative control group by (serum myoglobin) | decrease of expression levels of SCN9A exons 4-6 (SYBR Green) (SCN9A mRNA; PC3 cells, 10 zM) | decrease of expression levels of SCN9A exons 4-6 (SYBR Green) (SCN9A mRNA; PC3 cells, 100 zM) | decrease of expression levels of SCN9A exons 4-6 (SYBR Green) (SCN9A mRNA; PC3 cells, 1,000 zM)
1 | Fethoc-A(5)GA-G(6)CC(1O2)-TCA-A(5)AA(5)-T-NH2 (antisense AGAGCCTCAAAAT; Fethoc N-cap, C-terminal amide, chemistry not fully specified) [DMD-ASO 1] | induced the skipping of exon 23 | detected | 30-50% | 43% | – | – | –
2 | Fethoc-AC(1O2)T-TA(5)C-G(6)CA-A(5)AA(5)-AC(1O2)A-A(5)-NH2 (ACTTACGCAAAAACAA; all peptide nucleic acid (PNA), [C(1O2)] at 2, 14, [A(5)] at 5, 10, 12, 16, [G(6)] at 7, 5' {Fethoc}, 3' {NH2}; peptide nucleic acid written N to C) [SCN-ASO 7] | – | – | – | – | ~70% | 40% | 20-30%
